Test results published in US11780826B2 (Amgen Inc., priority 2017, dated 2023).

Tested on: Bovine cardiac myofibrils
Experiment: In vitro model of dose-dependent myofibril ATPase modulation (AC1.4, pyruvate kinase/lactate dehydrogenase-coupled ATPase assay at pCa25)
Format: biochemical
Conditions: concentration at which ATPase activity was 1.4-fold higher than the bottom of the dose curve, mean of a minimum of two independent tests
Experimental: In vitro Model of Dose-Dependent Myofibril ATPase Modulation: Dose responses were measured using a calcium-buffered, pyruvate kinase and lactate dehydrogenase-coupled ATPase assay containing the following reagents (concentrations expressed are final assay concentrations): Potassium PIPES (12 mM), MgCl2 (2 mM), ATP (1 mM), DTT (1 mM), BSA (0.1 mg/mi), NADH (0.5 mM), PEP (1.5 mM), pyruvate kinase (4 U/ml), lactate dehydrogenase (8 U/ml), and antifoam (90 ppm). The pH was adjusted to 6.80 at 22° C. by addition of potassium hydroxide.
Bovine cardiac myofibrils were obtained by homogenizing the appropriate tissue in the presence of detergent. Such treatment removes membranes and majority of soluble cytoplasmic proteins but leaves intact cardiac sarcomeric acto-myosin apparatus. Concentrations of myofibrils were adjusted to achieve the necessary rate of ATP hydrolysis (typically 0.25-1.0 mg/ml).
Assays were performed by first preparing a dilution series of test chemical entity, each with an assay mixture containing potassium Pipes, MgCl2, BSA, DTT, pyruvate kinase, lactate dehydrogenase, myofibrils, antifoam, EGTA, CaCl2, and water. The assay was started by adding an equal volume of solution containing potassium Pipes, MgCl2, BSA, DTT, ATP, NADH, PEP, antifoam, and water. ATP hydrolysis was monitored by absorbance at 340 nm. The resulting dose response curve was fit by the 4 parameter equation y=Bottom+((Top−Bottom)/(1+((EC50/X)^Hill))). […] AC1.4 values reported in the table below are mean values based on a minimum of two independent tests.

| SMILES | AC1.4 [µM] |
| --- | --- |
| N#CC1CN(S(=O)(=O)N2CCC[C@H](C(=O)N3CC(F)(F)C[C@@H]3C(=O)NCc3ccc(C(F)(F)F)cc3)C2)C1 [Example 25, 1-(((3S)-1-((3-cyano-1-azetidinyl)sulfonyl)-3-piperidinyl)carbonyl)-4,4-difluoro-N-(4-(trifluoromethyl)benzyl)-D-prolinamide] | 0.0289 |
| CS(=O)(=O)c1ccc(NC2CC2)c(C(=O)N2CCC[C@@H]2C(=O)N[C@@H](c2ccc(C(F)(F)F)cc2F)C2CC2)c1 [Example 26, 1-(2-(cyclopropylamino)-5-(methylsulfonyl)benzoyl)-N-((R)-cyclopropyl(2-fluoro-4-(trifluoromethyl)phenyl)methyl)-D-prolinamide] | 0.0296 |
| N#CC1CN(S(=O)(=O)c2cccc(C(=O)N3CCC[C@@H]3C(=O)N[C@@H](c3ccc(C(F)(F)F)cc3)C3CC3)c2)C1 [Example 30, 1-(3-((3-cyano-1-azetidinyl)sulfonyl)benzoyl)-N-((R)-cyclopropyl(4-(trifluoromethyl)phenyl)methyl)-D-prolinamide] | 0.0318 |
| N#CC1CN(S(=O)(=O)c2cccc(C(=O)N3CCC[C@@H]3C(=O)N[C@H](CO)c3ccc(C(F)(F)F)cc3)c2)C1 [Example 31, 1-(3-((3-cyano-1-azetidinyl)sulfonyl)benzoyl)-N-((1S)-2-hydroxy-1-(4-(trifluoromethyl)phenyl)ethyl)-D-prolinamide] | 0.03275 |
| N#CC1CN(S(=O)(=O)N2CCC[C@H](C(=O)N3[C@@H](C(=O)NCc4ccc(C(F)(F)F)cc4F)C[C@H]4C[C@H]43)C2)C1 [Example 33, (1R,3R,5R)-2-(((3S)-1-((3-cyano-1-azetidinyl)sulfonyl)-3-piperidinyl)carbonyl)-N-(2-fluoro-4-(trifluoromethyl)benzyl)-2-azabicyclo[3.1.0]hexane-3-carboxamide] | 0.03455 |
| CCNc1ccc(C)cc1C(=O)N1C[C@H](O)C[C@@H]1C(=O)N[C@@H](c1cc(F)c(Cl)cc1F)C1COC1 [Example 34, (4R)-N-((R)-(4-chloro-2,5-difluorophenyl)(3-oxetanyl)methyl)-1-(2-(ethylamino)-5-methylbenzoyl)-4-hydroxy-D-prolinamide] | 0.0361 |
| N#CC1CN(S(=O)(=O)N2CCC[C@H](C(=O)N3CCC[C@@H]3C(=O)N[C@@H](c3cc(F)c(C(F)(F)F)cc3F)C3CC3)C2)C1 [Example 35, 1-(((3S)-1-((3-cyano-1-azetidinyl)sulfonyl)-3-piperidinyl)carbonyl)-N-((R)-cyclopropyl(2,5-difluoro-4-(trifluoromethyl)phenyl)methyl)-D-prolinamide] | 0.0372 |

Further lines, results first:

| AC1.4 [µM] | SMILES |
| --- | --- |
| 0.03125 | N#CC1CN(S(=O)(=O)N2CCC[C@H](C(=O)N3CCC[C@@H]3C(=O)N[C@H](CC(F)(F)F)c3ccc(C(F)(F)F)cc3)C2)C1 [Example 28, 1-(((3S)-1-((3-cyano-1-azetidinyl)sulfonyl)-3-piperidinyl)carbonyl)-N-((1R)-3,3,3-trifluoro-1-(4-(trifluoromethyl)phenyl)propyl)-D-prolinamide] |
| 0.03155 | C[C@@H](NC(=O)[C@H]1CCCN1C(=O)[C@H]1CCCN(S(=O)(=O)N2CC(C#N)C2)C1)c1ccc(C(F)(F)F)cc1F [Example 29, 1-(((3S)-1-((3-cyano-1-azetidinyl)sulfonyl)-3-piperidinyl)carbonyl)-N-((1R)-1-(2-fluoro-4-(trifluoromethyl)phenyl)ethyl)-D-prolinamide] |
| 0.0335 | N#CC1CN(S(=O)(=O)N2CCC[C@H](C(=O)N3CCC[C@@H]3C(=O)NCc3ccc(C(F)(F)F)c(F)c3)C2)C1 [Example 32, 1-(((3S)-1-((3-cyano-1-azetidinyl)sulfonyl)-3-piperidinyl)carbonyl)-N-(3-fluoro-4-(trifluoromethyl)benzyl)-D-prolinamide] |
